How the values were obtained:
[1] = biological target: Sodium-dependent dopamine transporter (Homo sapiens, UniProt Q01959); test: Inhibition of [3H]dopamine reuptake at human DAT expressed in HEK293 cells by SPA; format: cell-based
[2] = biological target: Sodium-dependent noradrenaline transporter (Homo sapiens, UniProt P23975); test: Inhibition of [3H]nisoxetine reuptake at human NET expressed in HEK293 cells by SPA; format: cell-based
[3] = Metabolic stability in human liver microsomes assessed as intrinsic clearance; format: ADME, Microsome
[4] = biological target: Sodium-dependent serotonin transporter (Homo sapiens, UniProt P31645); test: Inhibition of [3H]citalopram uptake at human 5HTT expressed in HEK293 cells by SPA; format: cell-based
Chain of Sodium-dependent serotonin transporter (P31645 whole entry): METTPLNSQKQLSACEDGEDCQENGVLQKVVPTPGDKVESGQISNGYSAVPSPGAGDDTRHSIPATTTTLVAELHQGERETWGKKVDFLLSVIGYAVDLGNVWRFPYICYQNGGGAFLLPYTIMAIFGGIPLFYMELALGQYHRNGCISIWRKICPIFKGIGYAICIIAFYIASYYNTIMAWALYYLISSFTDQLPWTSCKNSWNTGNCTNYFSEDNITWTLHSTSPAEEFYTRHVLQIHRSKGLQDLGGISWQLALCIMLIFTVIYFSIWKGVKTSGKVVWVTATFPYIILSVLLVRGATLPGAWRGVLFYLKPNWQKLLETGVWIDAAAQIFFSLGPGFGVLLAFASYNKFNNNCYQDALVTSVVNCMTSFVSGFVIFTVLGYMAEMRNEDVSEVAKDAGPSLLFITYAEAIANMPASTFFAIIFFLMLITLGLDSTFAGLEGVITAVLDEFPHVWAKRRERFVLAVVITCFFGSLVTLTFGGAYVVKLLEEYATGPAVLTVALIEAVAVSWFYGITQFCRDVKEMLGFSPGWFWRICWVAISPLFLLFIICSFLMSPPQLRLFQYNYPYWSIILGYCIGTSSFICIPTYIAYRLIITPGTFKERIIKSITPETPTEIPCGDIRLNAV

Cytochrome P450 2D6 = Cytochrome P450 2D6 (Homo sapiens, UniProt P10635); test: Inhibition of CYP2D6; format: ADME
Chain of Cytochrome P450 2D6 (P10635 whole entry): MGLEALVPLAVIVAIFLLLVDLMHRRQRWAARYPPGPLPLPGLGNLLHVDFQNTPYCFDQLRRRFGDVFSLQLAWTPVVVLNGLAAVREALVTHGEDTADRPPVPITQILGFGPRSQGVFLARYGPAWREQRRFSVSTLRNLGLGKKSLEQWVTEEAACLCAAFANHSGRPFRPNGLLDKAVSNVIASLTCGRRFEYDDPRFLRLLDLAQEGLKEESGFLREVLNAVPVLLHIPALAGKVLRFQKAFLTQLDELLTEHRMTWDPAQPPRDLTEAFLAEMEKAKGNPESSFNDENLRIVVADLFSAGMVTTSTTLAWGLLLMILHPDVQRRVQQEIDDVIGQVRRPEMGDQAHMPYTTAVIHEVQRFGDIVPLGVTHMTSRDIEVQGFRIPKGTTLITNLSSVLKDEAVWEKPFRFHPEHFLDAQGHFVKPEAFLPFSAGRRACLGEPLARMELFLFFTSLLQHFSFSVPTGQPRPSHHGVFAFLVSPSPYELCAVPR

[5] = biological target: Voltage-gated inwardly rectifying potassium channel KCNH2 (Homo sapiens, UniProt Q12809); test: Displacement of [3H]dofetilide from human ERG channel
Chain of Voltage-gated inwardly rectifying potassium channel KCNH2 (Q12809 whole entry): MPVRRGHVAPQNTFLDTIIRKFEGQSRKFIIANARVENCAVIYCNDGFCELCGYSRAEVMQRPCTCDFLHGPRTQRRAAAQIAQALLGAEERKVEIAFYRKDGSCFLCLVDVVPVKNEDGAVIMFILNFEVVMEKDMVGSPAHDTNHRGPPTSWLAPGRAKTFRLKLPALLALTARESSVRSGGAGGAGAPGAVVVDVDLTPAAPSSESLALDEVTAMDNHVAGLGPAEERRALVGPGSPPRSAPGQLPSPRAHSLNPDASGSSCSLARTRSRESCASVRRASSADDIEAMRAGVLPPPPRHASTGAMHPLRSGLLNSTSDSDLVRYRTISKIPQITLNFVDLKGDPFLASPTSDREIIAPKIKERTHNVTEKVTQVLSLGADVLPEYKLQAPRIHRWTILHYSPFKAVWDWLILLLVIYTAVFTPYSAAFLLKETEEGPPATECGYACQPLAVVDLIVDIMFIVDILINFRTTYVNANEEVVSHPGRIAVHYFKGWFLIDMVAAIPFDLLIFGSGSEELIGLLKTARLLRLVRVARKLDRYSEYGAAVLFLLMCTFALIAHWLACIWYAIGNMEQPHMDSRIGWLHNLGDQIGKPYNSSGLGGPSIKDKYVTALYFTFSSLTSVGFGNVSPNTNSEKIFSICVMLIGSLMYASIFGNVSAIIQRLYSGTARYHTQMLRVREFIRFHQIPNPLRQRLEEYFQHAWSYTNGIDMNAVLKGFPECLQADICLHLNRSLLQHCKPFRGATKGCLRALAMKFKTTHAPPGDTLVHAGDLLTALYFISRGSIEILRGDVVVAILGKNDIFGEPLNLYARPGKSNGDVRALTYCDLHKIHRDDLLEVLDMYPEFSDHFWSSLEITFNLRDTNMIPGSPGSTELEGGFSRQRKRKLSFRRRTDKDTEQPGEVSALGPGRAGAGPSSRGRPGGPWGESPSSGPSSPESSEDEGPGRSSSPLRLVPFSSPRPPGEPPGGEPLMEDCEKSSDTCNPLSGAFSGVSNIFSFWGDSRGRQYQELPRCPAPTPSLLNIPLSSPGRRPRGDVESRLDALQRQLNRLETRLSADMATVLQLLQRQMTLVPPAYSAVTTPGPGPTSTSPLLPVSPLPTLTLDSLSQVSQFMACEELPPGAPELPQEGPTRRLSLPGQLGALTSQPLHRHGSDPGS

[6] = Dissociation constant, pKa of the compound; format: physicochemical
Cytochrome P450 2C9 = Cytochrome P450 2C9 (Homo sapiens, UniProt P11712); test: Inhibition of CYP2C9; format: ADME
Chain of Cytochrome P450 2C9 (P11712 whole entry): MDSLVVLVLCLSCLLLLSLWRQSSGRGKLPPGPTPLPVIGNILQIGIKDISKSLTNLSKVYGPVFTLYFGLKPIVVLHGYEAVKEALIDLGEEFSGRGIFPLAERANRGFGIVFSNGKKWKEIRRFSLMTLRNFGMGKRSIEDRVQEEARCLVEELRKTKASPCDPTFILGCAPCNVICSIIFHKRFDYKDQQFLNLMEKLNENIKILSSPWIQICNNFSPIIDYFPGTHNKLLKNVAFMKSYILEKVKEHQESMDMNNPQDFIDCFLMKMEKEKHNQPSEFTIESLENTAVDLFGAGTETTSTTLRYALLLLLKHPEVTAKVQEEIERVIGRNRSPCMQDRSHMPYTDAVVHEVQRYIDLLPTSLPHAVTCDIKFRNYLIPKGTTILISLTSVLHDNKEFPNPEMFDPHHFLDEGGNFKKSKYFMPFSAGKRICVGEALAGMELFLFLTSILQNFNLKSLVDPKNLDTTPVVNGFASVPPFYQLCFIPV

Homo sapiens [7] = organism: Homo sapiens; test: Selectivity for human NET over human SERT
[8] = Inhibition of sodium channel site 2
[9] = Apparent permeability from apical to basolateral side of the MDCK cells expressing MDR1 gene; format: ADME, cell-based, Canis lupus familiaris; details: dog
[10] = Ratio of permeability from basolateral to apical side over apical to basolateral side of MDCK cells expressing MDR1 gene; details: dog
Cytochrome P450 3A4 = Cytochrome P450 3A4 (Homo sapiens, UniProt P08684); test: Inhibition of CYP3A4; format: ADME
Chain of Cytochrome P450 3A4 (P08684 whole entry): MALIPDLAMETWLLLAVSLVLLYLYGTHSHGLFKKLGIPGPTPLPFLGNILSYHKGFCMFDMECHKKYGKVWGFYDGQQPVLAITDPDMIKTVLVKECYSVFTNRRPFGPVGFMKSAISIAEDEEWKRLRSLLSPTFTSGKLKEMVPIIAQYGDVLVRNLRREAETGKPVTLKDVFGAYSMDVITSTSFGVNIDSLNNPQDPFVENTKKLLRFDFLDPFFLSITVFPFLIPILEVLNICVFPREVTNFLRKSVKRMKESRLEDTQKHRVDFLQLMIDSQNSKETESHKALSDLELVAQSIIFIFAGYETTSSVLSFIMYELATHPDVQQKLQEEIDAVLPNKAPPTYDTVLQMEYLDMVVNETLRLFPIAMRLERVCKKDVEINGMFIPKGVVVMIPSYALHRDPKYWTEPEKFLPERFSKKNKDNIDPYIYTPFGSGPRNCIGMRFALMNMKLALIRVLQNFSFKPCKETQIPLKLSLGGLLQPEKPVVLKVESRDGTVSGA

[11] = Inhibition of L type calcium channel
Homo sapiens [12] = organism: Homo sapiens; test: Selectivity for human NET over human DAT
Cytochrome P450 1A2 = biological target: T1, Cytochrome P450 1A2 (Homo sapiens, UniProt P05177); test: Inhibition of CYP1A2; format: ADME
T1 sequence (P05177 whole entry): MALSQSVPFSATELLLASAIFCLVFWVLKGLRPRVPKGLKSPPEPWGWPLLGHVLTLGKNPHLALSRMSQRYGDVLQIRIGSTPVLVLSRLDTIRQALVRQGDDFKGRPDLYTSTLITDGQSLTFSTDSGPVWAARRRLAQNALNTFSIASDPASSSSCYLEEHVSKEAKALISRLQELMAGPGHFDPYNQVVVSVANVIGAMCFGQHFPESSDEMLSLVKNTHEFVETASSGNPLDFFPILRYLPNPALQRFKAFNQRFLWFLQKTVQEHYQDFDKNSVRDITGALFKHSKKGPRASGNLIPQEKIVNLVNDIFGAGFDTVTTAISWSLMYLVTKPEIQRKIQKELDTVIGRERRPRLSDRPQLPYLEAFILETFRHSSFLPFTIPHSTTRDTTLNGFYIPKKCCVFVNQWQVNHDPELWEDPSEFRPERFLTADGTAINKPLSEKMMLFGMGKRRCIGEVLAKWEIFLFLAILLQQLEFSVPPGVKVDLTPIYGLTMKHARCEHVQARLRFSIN

[13] = Distribution coefficient, log D at pH 7.4; format: physicochemical; details: octanol/water
[14] = Apparent permeability from basolateral to apical side of the MDCK cells expressing MDR1 gene; format: ADME, cell-based, Canis lupus familiaris; details: dog
Hepatocyte = test: Metabolic stability in human hepatocytes assessed as intrinsic clearance; format: ADME, cell-based, Liver
Liver microsomes = test: Metabolic stability in human liver microsomes; format: ADME, Microsome

Chain of Sodium-dependent noradrenaline transporter (P23975 whole entry): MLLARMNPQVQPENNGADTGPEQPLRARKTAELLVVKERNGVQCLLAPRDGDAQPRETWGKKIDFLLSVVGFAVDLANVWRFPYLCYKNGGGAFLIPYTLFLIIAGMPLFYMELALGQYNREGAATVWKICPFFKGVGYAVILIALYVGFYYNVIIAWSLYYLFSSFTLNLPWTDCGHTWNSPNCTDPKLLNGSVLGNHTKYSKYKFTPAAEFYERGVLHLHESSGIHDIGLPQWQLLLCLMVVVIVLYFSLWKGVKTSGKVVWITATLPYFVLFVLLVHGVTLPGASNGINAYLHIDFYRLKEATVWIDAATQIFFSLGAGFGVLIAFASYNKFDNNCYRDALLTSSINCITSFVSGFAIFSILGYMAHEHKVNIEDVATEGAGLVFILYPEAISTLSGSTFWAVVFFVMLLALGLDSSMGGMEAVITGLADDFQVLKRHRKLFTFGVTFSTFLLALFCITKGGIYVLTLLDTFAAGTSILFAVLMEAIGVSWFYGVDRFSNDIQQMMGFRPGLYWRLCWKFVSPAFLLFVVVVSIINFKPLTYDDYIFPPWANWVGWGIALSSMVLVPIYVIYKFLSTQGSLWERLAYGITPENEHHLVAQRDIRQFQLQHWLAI
Chain of Sodium-dependent dopamine transporter (Q01959 whole entry): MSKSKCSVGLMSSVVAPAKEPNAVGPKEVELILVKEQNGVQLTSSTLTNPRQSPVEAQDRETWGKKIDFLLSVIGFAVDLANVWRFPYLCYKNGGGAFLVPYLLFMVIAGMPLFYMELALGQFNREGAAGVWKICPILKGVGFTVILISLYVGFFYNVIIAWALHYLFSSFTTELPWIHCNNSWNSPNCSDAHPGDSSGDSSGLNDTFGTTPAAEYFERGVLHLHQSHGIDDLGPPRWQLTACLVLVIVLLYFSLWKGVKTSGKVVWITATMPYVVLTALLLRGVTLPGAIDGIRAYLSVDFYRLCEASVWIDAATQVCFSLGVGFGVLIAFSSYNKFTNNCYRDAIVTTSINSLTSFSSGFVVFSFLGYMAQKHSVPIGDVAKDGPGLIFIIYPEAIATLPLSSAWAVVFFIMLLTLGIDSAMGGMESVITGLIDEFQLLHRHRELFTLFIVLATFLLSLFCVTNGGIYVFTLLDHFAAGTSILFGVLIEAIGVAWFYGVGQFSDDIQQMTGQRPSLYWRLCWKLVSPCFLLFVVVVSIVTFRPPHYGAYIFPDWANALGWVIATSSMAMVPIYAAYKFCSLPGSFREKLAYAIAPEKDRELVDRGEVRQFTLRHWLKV

SMILES	Ki [1] [nM]	Ki [2] [nM]	microsomal CLint [3] [µL/min/mg]	Ki [4] [nM]	also measured
CSc1ccccc1CN([C@H]1CCNC1)S(C)(=O)=O	2950	86	< 7	1250	–
COC(=O)N(Cc1ccccc1-c1ccccc1)[C@H]1CCNC1	3190	18	< 7	4440	IC50 (Cytochrome P450 2D6): 10600 nM
CC(=O)N(Cc1ccccc1-c1ccccc1)[C@H]1CCNC1	–	124	< 7	5810	–
CS(=O)(=O)N(Cc1ccccc1-c1ccccc1)[C@H]1CCNC1	2670	5	7	4120	Ki [5]: > 2700 nM; pKa [6]: 8.9; IC50 (Cytochrome P450 2C9): > 3000 nM; Ratio Ki (Homo sapiens [7]): > 100; Ki [8]: 1900 nM; Papp A→B [9]: 10 ×10⁻⁶ cm/s; efflux ratio [10]: 5.1; IC50 (Cytochrome P450 3A4): > 3000 nM; Ki [11]: 1900 nM; IC50 (Cytochrome P450 2D6): 3100 nM; Ratio Ki (Homo sapiens [12]): > 100; IC50 (Cytochrome P450 1A2): > 3000 nM; logD [13]: 0.6; Papp B→A [14]: 51 ×10⁻⁶ cm/s; CL (Hepatocyte): < 5 µL/min/mg
c1ccc(-c2ccccc2CN[C@H]2CCNC2)cc1	2470	271	–	1070	–
CC(C)CC(=O)N(Cc1ccccc1-c1ccccc1)[C@H]1CCNC1	–	30	9	415	–
CC(C)S(=O)(=O)N(Cc1ccccc1-c1ccccc1)[C@H]1CCNC1	2700	10	20	4690	IC50 (Cytochrome P450 2D6): 350 nM
CC(C)OC(=O)N(Cc1ccccc1-c1ccccc1)[C@H]1CCNC1	2010	14	–	787	–
CCCC(=O)N(Cc1ccccc1-c1ccccc1)[C@H]1CCNC1	2610	25	< 7	730	–
O=CN(Cc1ccccc1-c1ccccc1)[C@H]1CCNC1	2130	118	–	869	–
Clc1cccc(CN(C2CCOCC2)[C@H]2CCNC2)c1Cl	–	–	–	–	t1/2 (Liver microsomes): 1.67 h
O=S(=O)(N(Cc1ccccc1-c1ccccc1)[C@H]1CCNC1)C(F)(F)F	2080	30	–	5280	–
CS(=O)(=O)N(Cc1ccccc1Oc1ccccc1)[C@H]1CCNC1	2550	96	–	2700	–
CCOC(=O)N(Cc1ccccc1C(F)(F)F)[C@H]1CCNC1	3210	46	–	427	–
CCOC(=O)N(Cc1ccccc1SC)[C@H]1CCNC1	–	89	–	353	–
CS(=O)(=O)N(Cc1ccccc1C(F)(F)F)[C@H]1CCNC1	2890	86	–	2890	–
CN(C)S(=O)(=O)N(Cc1ccccc1-c1ccccc1)[C@H]1CCNC1	2690	8	16	3330	Papp A→B [9]: 17 ×10⁻⁶ cm/s; efflux ratio [10]: 4; IC50 (Cytochrome P450 2D6): 840 nM; Papp B→A [14]: 68 ×10⁻⁶ cm/s
CC(C)C(=O)N(Cc1ccccc1C(F)(F)F)[C@H]1CCNC1	–	63	< 7	133	–

SMILES	Ki [1] [nM]	Ki [2] [nM]	microsomal CLint [3] [µL/min/mg]	Ki [4] [nM]	also measured
CN1CC[C@H](N(Cc2ccccc2-c2ccccc2)S(C)(=O)=O)C1	–	748	–	> 10000	–
CCCS(=O)(=O)N(Cc1ccccc1-c1ccccc1)[C@H]1CCNC1	2070	7	12	5680	IC50 (Cytochrome P450 2D6): 185 nM
CC(C)C(=O)N(Cc1ccccc1C1CC1)[C@H]1CCNC1	2920	74	–	124	–
CCOC(=O)N(Cc1ccccc1C(C)C)[C@H]1CCNC1	3340	49	–	764	–
CCOC(=O)N(Cc1ccccc1-c1ccccc1)[C@@H]1CCNC1	2910	16	< 7	410	IC50 (Cytochrome P450 2D6): 350 nM
CCC(=O)N(Cc1ccccc1-c1ccccc1)[C@H]1CCNC1	–	30	< 7	2680	–
CCS(=O)(=O)N(Cc1ccccc1-c1ccccc1)[C@H]1CCNC1	2760	5	< 7	5620	IC50 (Cytochrome P450 2D6): 1890 nM
CC(C)C(=O)N(Cc1ccccc1C(C)C)[C@H]1CCNC1	3410	70	< 7	544	–
O=C(N1CCCC1)N(Cc1ccccc1-c1ccccc1)[C@H]1CCNC1	4190	27	–	–	Papp A→B [9]: 2 ×10⁻⁶ cm/s; efflux ratio [10]: 26; Papp B→A [14]: 53 ×10⁻⁶ cm/s
CC(C)C(=O)N(Cc1ccccc1Oc1ccccc1)[C@H]1CCNC1	3500	34	10	229	–
CC(C)C(=O)N(Cc1ccccc1-c1ccccc1)[C@H]1CCNC1	3740	6	< 7	960	Ki [5]: 2840 nM; pKa [6]: 9.4; IC50 (Cytochrome P450 2C9): > 3000 nM; Ki [8]: 1200 nM; Papp A→B [9]: 11 ×10⁻⁶ cm/s; efflux ratio [10]: 6.1; IC50 (Cytochrome P450 3A4): > 3000 nM; Ki [11]: > 10000 nM; IC50 (Cytochrome P450 2D6): 1860 nM; IC50 (Cytochrome P450 1A2): > 3000 nM; logD [13]: 0.8; Papp B→A [14]: 68 ×10⁻⁶ cm/s
CS(=O)(=O)N(Cc1ccccc1-c1ccccc1)[C@@H]1CCNC1	2390	29	< 7	5350	IC50 (Cytochrome P450 2D6): 5360 nM
CCS(=O)(=O)N(Cc1ccccc1-c1ccccc1)[C@H]1CCN(C)C1	–	466	–	> 10000	–
CSc1ccccc1CN(C(=O)C(C)C)[C@H]1CCNC1	1380	65	–	50	–
CN(C)C(=O)N(Cc1ccccc1-c1ccccc1)[C@H]1CCNC1	2970	53	–	5010	–
c1ccc(-c2ccccc2CN(C2CCOCC2)[C@H]2CCNC2)cc1	–	–	–	–	t1/2 (Liver microsomes): > 2 h
CCOC(=O)N(Cc1ccccc1Oc1ccccc1)[C@H]1CCNC1	1900	23	21	444	IC50 (Cytochrome P450 2D6): 420 nM

Reference: ChEMBL document CHEMBL1155858, “Derivatives of (3S)-N-(biphenyl-2-ylmethyl)pyrrolidin-3-amine as selective noradrenaline reuptake inhibitors: Reducing P-gp mediated efflux by modulation of H-bond acceptor capacity” (Bioorg Med Chem Lett, 2008)
